From ChEMBL document CHEMBL4483862, “Open-source discovery of chemical leads for next-generation chemoprotective antimalarials” (2018)

System: Plasmodium berghei
Assay: Luciferase/luciferin-expressing antifolate-resistant parasites were used to infect a culture of HepG2 cells that were pre-incubated with compounds. Infected hepatocytes emit light due to the luciferase reaction. Assay results are presented as the percent inhibition of light emission compared to control. […]
Format: functional
Details: sporozoite; for IC90: read-out: LUCIFERASE INFECTION ASSAY - IC90

Row | Structure (SMILES) | IC90 [µM] | also measured
1 | Cc1ccc(C(=O)OCC(=O)c2cc(C)n(-c3cccc(C(F)(F)F)c3)c2C)cc1NC(=O)c1ccco1 | > 10 | IC50 (FFLUC_HILL_SLOPE 14.7, FFLUC_R_SQUARED 0.458, read-out: LUCIFERASE INFECTION ASSAY - IC50): > 10 µM
2 | CSc1nccc(-c2ccsc2)n1 | > 15.8 | IC50 (FFLUC_HILL_SLOPE 14.6, FFLUC_R_SQUARED 0.758, read-out: LUCIFERASE INFECTION ASSAY - IC50): > 15.8 µM
3 | c1cnc(N2CCN(CCCNc3ncnc4sccc34)CC2)nc1 | > 10 | IC50 (FFLUC_HILL_SLOPE 14.8, FFLUC_R_SQUARED 0.258, HEPG2TOX_HILL_SLOPE 2.5, HEPG2TOX_R_SQUARED 0.964, PBLUC_HILL_SLOPE 9.27, PBLUC_R_SQUARED 0.473, read-out: LUCIFERASE INFECTION ASSAY - IC50): 8.5 µM
4 | COc1ccc(Nc2n[nH]c(NC(=O)Cc3c(Cl)cccc3Cl)c2C#N)cc1 | 0.506 | IC50 (FFLUC_HILL_SLOPE 14.5, FFLUC_R_SQUARED 0.631, HEPG2TOX_HILL_SLOPE 1.37, HEPG2TOX_R_SQUARED 0.939, PBLUC_HILL_SLOPE 1.1, PBLUC_R_SQUARED 0.834, read-out: LUCIFERASE INFECTION ASSAY - IC50): 0.069 µM
5 | Cc1cc(C(=O)CN2C(=O)NC(C)(C3CC3)C2=O)c(C)n1C(c1ccccc1)c1ccccc1 (stereo not given) | 6.7 | IC50 (FFLUC_HILL_SLOPE 14.7, FFLUC_R_SQUARED 0.253, PBLUC_HILL_SLOPE 1.67, PBLUC_R_SQUARED 0.756, read-out: LUCIFERASE INFECTION ASSAY - IC50): 1.8 µM
6 | N#Cc1ccc(/C=C(\c2nc3ccccc3[nH]2)c2nc3ccccc3s2)cc1 | 1.53 | IC50 (FFLUC_HILL_SLOPE 15, FFLUC_R_SQUARED 0.447, HEPG2TOX_HILL_SLOPE 15.3, HEPG2TOX_R_SQUARED 0.806, PBLUC_HILL_SLOPE 8.27, PBLUC_R_SQUARED 0.505, read-out: LUCIFERASE INFECTION ASSAY - IC50): 1.17 µM
7 | CC1(C(=O)NCCC(F)(F)F)Cc2c(-c3ccc4c(c3)OCO4)ccnc2O1 (stereo not given) | 6.15 | IC50 (FFLUC_HILL_SLOPE 14.8, FFLUC_R_SQUARED 0.74, HEPG2TOX_HILL_SLOPE 2.73, HEPG2TOX_R_SQUARED 0.858, PBLUC_HILL_SLOPE 3.16, PBLUC_R_SQUARED 0.521, read-out: LUCIFERASE INFECTION ASSAY - IC50): 3.07 µM
8 | CC(C)(C)c1cc(NC(=O)COc2ccc3[nH]c4ccccc4c(=O)c3c2)n(-c2ccccc2)n1 | 0.752 | IC50 (FFLUC_HILL_SLOPE 14.6, FFLUC_R_SQUARED 0.0178, PBLUC_HILL_SLOPE 1.61, PBLUC_R_SQUARED 0.936, read-out: LUCIFERASE INFECTION ASSAY - IC50): 0.192 µM
9 | Fc1ccc(/N=c2\scc(-c3ccc4c(c3)OCCO4)n2C2CCCC2)cc1 | 1.58 | IC50 (FFLUC_HILL_SLOPE 15, FFLUC_R_SQUARED 0.34, HEPG2TOX_HILL_SLOPE 7.4, HEPG2TOX_R_SQUARED 0.523, PBLUC_HILL_SLOPE 11.6, PBLUC_R_SQUARED 0.501, read-out: LUCIFERASE INFECTION ASSAY - IC50): 1.31 µM
10 | Cc1onc(-c2c(Cl)cccc2Cl)c1-c1nc(-c2cc(-c3ccccc3)c(C(F)(F)F)s2)cs1 | > 6.14 | IC50 (FFLUC_HILL_SLOPE 14.8, FFLUC_R_SQUARED 0.219, HEPG2TOX_HILL_SLOPE 0.104, HEPG2TOX_R_SQUARED 0.184, PBLUC_HILL_SLOPE 1.63, PBLUC_R_SQUARED 0.31, read-out: LUCIFERASE INFECTION ASSAY - IC50): > 6.14 µM
11 | O=C(N/N=C/c1cccc(O)c1O)c1ccc(CN2c3cccc4cccc(c34)S2(=O)=O)cc1 | > 10 | IC50 (FFLUC_HILL_SLOPE 14.9, FFLUC_R_SQUARED 0.808, read-out: LUCIFERASE INFECTION ASSAY - IC50): > 10 µM
12 | Cc1ccc(/N=C2\SCC(C)N2C(=O)c2ccccc2SCC(=O)NCC2CCCCC2)c(C)c1 (stereo not given) | > 10 | IC50 (FFLUC_HILL_SLOPE 15, FFLUC_R_SQUARED 0.0481, HEPG2TOX_HILL_SLOPE 2.13, HEPG2TOX_R_SQUARED 0.879, PBLUC_HILL_SLOPE 4.29, PBLUC_R_SQUARED 0.235, read-out: LUCIFERASE INFECTION ASSAY - IC50): 8.13 µM
13 | Cc1ccc(CNc2ccc3nnc(C(F)(F)F)n3n2)cc1 | > 10 | IC50 (FFLUC_HILL_SLOPE 15, FFLUC_R_SQUARED 0.243, read-out: LUCIFERASE INFECTION ASSAY - IC50): > 10 µM
14 | O=C(NC1CCCc2ccccc21)c1cc(-c2cccs2)nn1-c1ccccc1 (stereo not given) | > 10 | IC50 (FFLUC_HILL_SLOPE 14.9, FFLUC_R_SQUARED 0.608, PBLUC_HILL_SLOPE 2.01, PBLUC_R_SQUARED 0.0278, read-out: LUCIFERASE INFECTION ASSAY - IC50): 6.82 µM
15 | CC1=C(C(=O)OC2CCC(C)CC2)C(c2ccc(C)cc2)NC(=O)N1 (stereo not given) | > 9.64 | IC50 (FFLUC_HILL_SLOPE 14.5, FFLUC_R_SQUARED 0.355, read-out: LUCIFERASE INFECTION ASSAY - IC50): > 9.64 µM
16 | Nc1nc(CNC(c2ccccc2)c2ccc(Cl)cc2)nc(Nc2ccccc2)n1 (stereo not given) | > 10 | IC50 (FFLUC_HILL_SLOPE 14.9, FFLUC_R_SQUARED 0.741, read-out: LUCIFERASE INFECTION ASSAY - IC50): > 10 µM
17 | Cc1onc(-c2ccc(Cl)cc2)c1-c1ccnc(SCC(=O)c2ccc([N+](=O)[O-])cc2)n1 | > 7.07 | IC50 (FFLUC_HILL_SLOPE 14.7, FFLUC_R_SQUARED 0.642, read-out: LUCIFERASE INFECTION ASSAY - IC50): > 7.07 µM
18 | COc1ccc(Cl)cc1N1C(=O)/C(=C\c2sccc2C)N=C1SCc1cc(=O)n2ccsc2n1 | > 10 | IC50 (FFLUC_HILL_SLOPE 14.8, FFLUC_R_SQUARED 0.288, PBLUC_HILL_SLOPE 0.636, PBLUC_R_SQUARED 0.525, read-out: LUCIFERASE INFECTION ASSAY - IC50): 2.55 µM
19 | COc1c(Cl)cc(Br)c(OC)c1C(=O)NC(=O)Nc1cc(C(F)(F)F)cc(C(F)(F)F)c1 | 2.27 | IC50 (FFLUC_HILL_SLOPE 14.8, FFLUC_R_SQUARED 0.569, HEPG2TOX_HILL_SLOPE 7.93, HEPG2TOX_R_SQUARED 0.303, PBLUC_HILL_SLOPE 13, PBLUC_R_SQUARED 0.4, read-out: LUCIFERASE INFECTION ASSAY - IC50): 1.92 µM
20 | CC(C(OC(=O)c1ccc(S(=O)(=O)N(C)C)cc1)c1ccccc1)N(C)S(=O)(=O)c1ccc(Cl)cc1 (stereo not given) | > 10 | IC50 (FFLUC_HILL_SLOPE 14.7, FFLUC_R_SQUARED 0.389, PBLUC_HILL_SLOPE 2.36, PBLUC_R_SQUARED 0.776, read-out: LUCIFERASE INFECTION ASSAY - IC50): 7.17 µM
21 | COc1ccc(-c2cc(NC(=O)Cc3ccc(S(=O)(=O)N4CCCC4)s3)ccc2OC)cc1 | 4.64 | IC50 (FFLUC_HILL_SLOPE 14.7, FFLUC_R_SQUARED 0.565, HEPG2TOX_HILL_SLOPE 10.6, HEPG2TOX_R_SQUARED 0.932, PBLUC_HILL_SLOPE 12.2, PBLUC_R_SQUARED 0.78, read-out: LUCIFERASE INFECTION ASSAY - IC50): 3.88 µM
22 | COc1ccc(-c2csc3ncnc(NC4CCN(S(C)(=O)=O)CC4)c23)cc1 | > 10 | IC50 (FFLUC_HILL_SLOPE 15, FFLUC_R_SQUARED 0.503, HEPG2TOX_HILL_SLOPE 1.74, HEPG2TOX_R_SQUARED 0.848, read-out: LUCIFERASE INFECTION ASSAY - IC50): > 10 µM
23 | COc1cc([N+](=O)[O-])ccc1NC(=O)COC(=O)c1c(C)nn(Cc2ccc(Cl)cc2Cl)c1Cl | > 10 | IC50 (FFLUC_HILL_SLOPE 15, FFLUC_R_SQUARED 0.28, read-out: LUCIFERASE INFECTION ASSAY - IC50): > 10 µM
24 | CCCCNC(=O)c1c(NC(=O)c2ccc(Cl)cc2)nc2ccccn12 | 3 | IC50 (FFLUC_HILL_SLOPE 14.7, FFLUC_R_SQUARED 0.115, HEPG2TOX_HILL_SLOPE 1.94, HEPG2TOX_R_SQUARED 0.747, PBLUC_HILL_SLOPE 14.3, PBLUC_R_SQUARED 0.4, read-out: LUCIFERASE INFECTION ASSAY - IC50): 2.58 µM
25 | Cc1ccc(-n2ncc(Cl)c(Cl)c2=O)cc1 | > 12.9 | IC50 (FFLUC_HILL_SLOPE 14.5, FFLUC_R_SQUARED 0.489, HEPG2TOX_HILL_SLOPE 2.71, HEPG2TOX_R_SQUARED 0.789, PBLUC_HILL_SLOPE 3.3, PBLUC_R_SQUARED 0.431, read-out: LUCIFERASE INFECTION ASSAY - IC50): 8.02 µM
26 | O=C(CSc1nnnn1-c1ccccc1)N1N=C2/C(=C/c3ccc(F)cc3)CCCC2C1c1ccc(F)cc1 (stereo not given) | > 10 | IC50 (FFLUC_HILL_SLOPE 14.4, FFLUC_R_SQUARED 0.768, PBLUC_HILL_SLOPE 7.48, PBLUC_R_SQUARED 0.336, read-out: LUCIFERASE INFECTION ASSAY - IC50): 8.21 µM
27 | O=C1C=CC(=O)N1c1ccc(-c2csnn2)cc1 | > 12.8 | IC50 (FFLUC_HILL_SLOPE 14.6, FFLUC_R_SQUARED 0.441, read-out: LUCIFERASE INFECTION ASSAY - IC50): > 12.8 µM
28 | c1ccc(-c2ccc(C3=Nc4ccccc4SC(c4ccco4)C3)cc2)cc1 (stereo not given) | 4.75 | IC50 (FFLUC_HILL_SLOPE 14.5, FFLUC_R_SQUARED 0.557, PBLUC_HILL_SLOPE 1.32, PBLUC_R_SQUARED 0.568, read-out: LUCIFERASE INFECTION ASSAY - IC50): 0.903 µM
29 | Cc1ccc(CNCc2nc(NCc3ccc(C)cc3)c3c(C)c(C)sc3n2)cc1 | 4.22 | IC50 (FFLUC_HILL_SLOPE 14.5, FFLUC_R_SQUARED 0.473, HEPG2TOX_HILL_SLOPE 357, HEPG2TOX_R_SQUARED 0.506, PBLUC_HILL_SLOPE 12.5, PBLUC_R_SQUARED 0.0149, read-out: LUCIFERASE INFECTION ASSAY - IC50): 3.54 µM
30 | COc1ccc(-n2cnnc2SCC(=O)NC(=O)NC2CCCC2)cc1 | > 10 | IC50 (FFLUC_HILL_SLOPE 14.6, FFLUC_R_SQUARED 0.0899, read-out: LUCIFERASE INFECTION ASSAY - IC50): > 10 µM
